The source of these data is patent EP0041488A1, “Therapeutically useful tetralin derivatives” (Arvidsson, Folke Lars-Erik, priority 1980, dated 1981).

For one assay, the system named is central 5-HT receptors. In words: In-vivo determination of rat brain tryptophan hydroxylation (5-HTP formation) after reserpine pretreatment. Particulars: reserpine-pretreated rats; for "ED70%" for 5-HTP reduction: s.c., dose giving 70 % of the control 5-HTP level, similar values for limbic forebrain, striatum and hemispheral portions. As to the method: b. In-vivo determination of rat brain tyrosine and tryptophan hydroxylation after reserpine pretreatment (biochemical DA- and 5-HT receptor activity).
The compounds under evaluation were tested biochemically for central DA- and 5-HT-receptor (pre- and/or postsynaptic) stimulating activity. The concept of this biochemical screening method is that a DA- or 5-HT-receptor agonist will stimulate the receptor and through regulatory feedback systems effect a decline-in tyrosine or tryptophan hydroxylating activity, respectively, and a subsequent reduction in the synthesis rate for DA and 5-HT in the presynaptic neuron. Dopa and 5-HTP formation. as determined after in-vivo inhibition of the aromatic L-amino acid decarboxylase with NSO 1015 (3-hydroxybenzylhydrazine hydrochloride) are taken as indirect measures of DA- and 5-HT-synthesis rates, respectively.
Rats (150-300 g) pretreated with reserpine (5 mg/kg, 18 h before) were given the compounds under evaluation. Gross behavioural observations (changes in motility, hindleg abduction etc; c.f. above) were made. Subsequent administration of NSD 1015, decapitation, brain dissection [cerpera striate, the limbic ferebrain and the remaining hemispheral portions (mainly cortex) of rat brain], homogenization, centrifugation, ion-exchange chromatography and spectro- fluorimetric measurements (all as described in detail by Wikström et al., J. Med. Chem., 21, 864-867, 1978 and references cited therein) gave the actual dopa and 5-HTP levels. Several doses (n=4-6) were tested for each compound and brain area. The dose of a compound giving 70 % of the control 5-HTP.level in the rat brain part was then estimated.

For another assay, the system named is Male Wistar rats. In words: Hetero-sexual (masculine copulatory) behaviour in normal male rats. Format: in vivo, rat. Particulars: median. As to the method:
(§1) Male Wistar rats (12 months old; sexually experienced) were injected i.p. every second day in a balanced order with different doses of the compounds dissolved in physiological saline and injected in a volume of 2 ml/kg. Testing was begun 15 min after the drug treatment.
(§2) Mating arenas were 50' cm diameter acrylic glass cages with wood shavings on the floor. The stimulus females were of Wistar strain, primed with estradiol benzoate . (20 µg/animal) 48 h prior to testing and progesterone ([…]/animal) 4-6 h before testing.
(§3) The occurrence of mounts, intromissions and ejaculations were scored by an experienced observer. The measures of masculine copulatory behavior further included mount latency and intromission latency which are time from introduction of the stimulus female to the first mount and first intromission respectively. A copulatory series includes the mounts and intromissions preceding an ejaculation. Ejaculatory latency is the time from the first .intromission in a copulatory series to the ejaculation terminating that series. The postejaculatory interval is the time from an ejaculation to the next intromission. Tests were terminated when the rat had achieved one ejaculation and started the second series of copulations, or, if the intromission latency was >15 min, the ejaculation latency was >30 min, or the postejaculatory interval was >15 min.

For the next assay, the system named is castrated male rats. The experiment in a line: Sexual behaviour in castrated male rats (preliminary). Format: in vivo, rat. As to the method: as §1, §2, §3
Setting [1] is: subgroup 3 of biochemical potency.
The mark [2] stands for this setting: subgroup 1 of biochemical potency.

Marks after values point to notes of the source that are not given here.

With `CCCN(CCC)C1CCc2cccc(OC)c2C1` (racemic) [Compound 8, 2-(di-n-propylamino)-8-methoxytetralin], the “"ED70%" for 5-HTP reduction” value in the assay with central 5-HT receptors worked out at 0.4 µmol/kg. The “Mounts (number)” value is on record as 0^* b) with Male Wistar rats (1 mg/kg i.p., 15 min after treatment, control 2); 1 with Male Wistar rats (2 mg/kg i.p., 15 min after treatment, control 2); 1^*** in the assay on Male Wistar rats (4 mg/kg i.p., 15 min after treatment, control 2); 0^** in the assay with Male Wistar rats (8 mg/kg i.p., 15 min after treatment, control 2); 0^*** in the assay with Male Wistar rats (16 mg/kg i.p., 15 min after treatment, control 2). The Ejaculatory latency is recorded as 3.20 min in the assay with Male Wistar rats (1 mg/kg i.p., 15 min after treatment, control 4.75); 2.65 min in the assay with Male Wistar rats (2 mg/kg i.p., 15 min after treatment, control 4.75); 1.55^*** min with Male Wistar rats (4 mg/kg i.p., 15 min after treatment, control 4.75); 0.45^*** min in the assay with Male Wistar rats (8 mg/kg i.p., 15 min after treatment, control 4.75); 0.55^*** min in the assay on Male Wistar rats (16 mg/kg i.p., 15 min after treatment, control 4.75). Also, the Postejaculatory interval in the assay on Male Wistar rats (1 mg/kg i.p., 15 min after treatment, control 5.50) amounted to 6.40 min; with Male Wistar rats (2 mg/kg i.p., 15 min after treatment, control 5.50) it was 5.05 min; in the assay on Male Wistar rats (4 mg/kg i.p., 15 min after treatment, control 5.50), 4.55 min; in the assay with Male Wistar rats (8 mg/kg i.p., 15 min after treatment, control 5.50), 5.05 min; in the assay with Male Wistar rats (16 mg/kg i.p., 15 min after treatment, control 5.50) it was 4.55 min. The “Intromissions (number)” value in the assay with Male Wistar rats (1 mg/kg i.p., 15 min after treatment, control 9) is 8; in the assay on Male Wistar rats (2 mg/kg i.p., 15 min after treatment, control 9), 7^***; in the assay with Male Wistar rats (4 mg/kg i.p., 15 min after treatment, control 9) it was 3.5^***; with Male Wistar rats (8 mg/kg i.p., 15 min after treatment, control 9), 1.5^***; with Male Wistar rats (16 mg/kg i.p., 15 min after treatment, control 9), 1^***. For the same compound, the “castrated male rats that ejaculated” value in the assay on castrated male rats (8 mg/kg, out of 9 rats (of the 2 with intromissions), preliminary) turned out to be 1. The “castrated male rats that made intromissions” value in the assay with castrated male rats (8 mg/kg, out of 9 rats (of the 5 that mounted), preliminary) came to 2. Also, the “castrated male rats that mounted the female” value with castrated male rats (8 mg/kg, out of 9 rats, none of 9 saline-treated showed any sexual activity, preliminary) turned out to be 5. Further, in the assay with castrated male rats (preliminary experiments), the “sexual activity of male rats rendered sexual inactive by castration” value was “became sexual active”.
As to `CCCN(CCC)C1CCc2cccc(OC)c2C1` (single isomer, unassigned; (+)) [(+)-8], the “"ED70%" for 5-HTP reduction” value in the assay on central 5-HT receptors lay in the range of 0.2 to 0.4 µmol/kg. In addition, the “Mounts (number)” value in the assay on Male Wistar rats (4 mg/kg i.p., 15 min after treatment, control 2, listed as (+)-8 · HCl) is given as 1^*. Also, the Ejaculatory latency with Male Wistar rats (4 mg/kg i.p., 15 min after treatment, control 4.75, listed as (+)-8 · HCl) is listed as 1.05^*** min. Further, the Postejaculatory interval in the assay on Male Wistar rats (4 mg/kg i.p., 15 min after treatment, control 5.50, listed as (+)-8 · HCl) came to 6.15 min. In the assay on Male Wistar rats (4 mg/kg i.p., 15 min after treatment, control 9, listed as (+)-8 · HCl), the “Intromissions (number)” value is reported as 2^***.
With `CCCN(CCC)C1CCc2cccc(OC)c2C1` (single isomer, unassigned; (-)) [(-)-8], in the assay with central 5-HT receptors, the “"ED70%" for 5-HTP reduction” value lay within 0.3 to 0.4 µmol/kg. In addition, the “Mounts (number)” value in the assay with Male Wistar rats (4 mg/kg i.p., 15 min after treatment, control 2, listed as (-)-8 · HCl) is given as 0.5^*. Besides, the Ejaculatory latency with Male Wistar rats (4 mg/kg i.p., 15 min after treatment, control 4.75, listed as (-)-8 · HCl) is listed as 1.30^*** min. In addition, the Postejaculatory interval in the assay on Male Wistar rats (4 mg/kg i.p., 15 min after treatment, control 5.50, listed as (-)-8 · HCl) is reported as 5.65 min. Moreover, the “Intromissions (number)” value with Male Wistar rats (4 mg/kg i.p., 15 min after treatment, control 9, listed as (-)-8 · HCl) is 4.5^**.
For the compound `CCCCN(CCCC)C1CCc2cccc(OC)c2C1` (stereo not shown) [Compound 10], the “"ED70%" for 5-HTP reduction” value in the assay on central 5-HT receptors stood at 25 µmol/kg. The “"ED70%"” value in the assay on central 5-HT receptors (setting [1]) was “above 10 umol/kg”.
In the case of `CNC1CCc2cccc(O)c2C1` (stereo not shown) [Compound 14], the “"ED70%" for 5-HTP reduction” value in the assay on central 5-HT receptors fell in the range of 1.5 to 10 µmol/kg.
For `CCCNC1CCc2cccc(O)c2C1` (stereo not shown) [Compound 15], the “"ED70%" for 5-HTP reduction” value in the assay on central 5-HT receptors was found to be 0.4 µmol/kg.
Consider `CCCCNC1CCc2cccc(O)c2C1` (stereo not shown) [Compound 16], for which the “"ED70%" for 5-HTP reduction” value with central 5-HT receptors is given as 6 µmol/kg.
As for `CC(C)NC1CCc2cccc(O)c2C1` (stereo not shown) [Compound 17], the “"ED70%" for 5-HTP reduction” value in the assay with central 5-HT receptors was found to be 8 µmol/kg.
For the compound `CCCCCCCCNC1CCc2cccc(O)c2C1` (stereo not shown) [Compound 18], the “"ED70%" for 5-HTP reduction” value in the assay on central 5-HT receptors came out at 50 µmol/kg. For the same compound, the “"ED70%"” value in the assay with central 5-HT receptors (setting [1]) is reported as “above 10 umol/kg”.
With `CCCN(CC)C1CCc2cccc(O)c2C1` (stereo not shown) [Compound 19], in the assay on central 5-HT receptors, the “"ED70%" for 5-HTP reduction” value is on record as 0.09 µmol/kg.
On to `Br.CCCN(CCC)C1CCc2cccc(O)c2C1` (stereo not shown) [Compound 20, 2-(di-n-propylamino)-8-hydroxytetralin hydrobromide], for which the “"ED70%" for 5-HTP reduction” value in the assay on central 5-HT receptors is 0.06 µmol/kg. Besides, the “"ED70%"” value in the assay on central 5-HT receptors (setting [2]) was in the range of 0.01 to 1.0 µmol/kg. Besides, the “Mounts (number)” value in the assay with Male Wistar rats (4 mg/kg i.p., second experiment (N 9), control 1) is recorded as 0. This compound came in with an Ejaculatory latency with Male Wistar rats (4 mg/kg i.p., second experiment (N 9), control 1.80) of 0.25 min. The same compound came in with a Postejaculatory interval in the assay on Male Wistar rats (4 mg/kg i.p., second experiment (N 9), control 4.45) of 4.75 min. For the same compound, the “Intromissions (number)” value with Male Wistar rats (4 mg/kg i.p., second experiment (N 9), control 5) is reported as 1^***.
As to `CCCCN(CCC)C1CCc2cccc(O)c2C1` (stereo not shown) [Compound 21], in the assay with central 5-HT receptors, the “"ED70%" for 5-HTP reduction” value turned out to be 0.5 µmol/kg. For the same compound, in the assay on central 5-HT receptors (setting [2]), the “"ED70%"” value fell in the range of 0.01 to 1.0 µmol/kg.
On to `CCCCN(CCCC)C1CCc2cccc(O)c2C1` (stereo not shown) [Compound 22], for which, in the assay with central 5-HT receptors, the “"ED70%" for 5-HTP reduction” value was 8 µmol/kg.
The same measure, in the same setting: the value for `CCCN(Cc1ccccc1)C1CCc2cccc(O)c2C1` (stereo not shown) [Compound 23] was 3 µmol/kg; that for `Oc1cccc2c1CC(N1CCCCC1)CC2` (stereo not shown) [Compound 24] was less than 20 µmol/kg.
